“Also recorded” adds a separate entry of the source.
Assay: Differential scanning calorimetry of polymer/water and polymer/PBS solutions (ice formation, Tg, phase behavior)
Assay type: physicochemical
Conditions: 50 wt % aqueous solution
Experimental: Differential Scanning calorimetry (DSC). DSC was used to determine the Tg of pure polymer and aqueous polymer solutions. PMGS is hygroscopic, so PMGS batches were dried in vacuo for at least four hours prior to sample preparation. Polymer solutions were made by mixing dry PMGS with phosphate buffer solution (PBS) and hand-mixing until a homogeneous solution was achieved. DSC samples were prepared by loading TZero pans with at least 5 mg of each solution and sealing them with hermetic lids to prevent evaporation. DSC samples of pure polymer were typically scanned from −20 to 120° C. four times, and the Tg was determined from the last heating cycle. DSC samples of polymer solutions were cooled to −90 and heated to 20° C., and the Tg was determined on the heating cycle.
Differential scanning calorimetry. For PMGS/water mixtures, 6-8 mg of solution was placed in an aluminum DSC pan. The samples were cooled at 1° C./min to −90° C., held at −90° C. for 1 minute, then heated to 20° C. at 10° C./min. For neat PMGS, the polymer was dried overnight under vacuum, then the polymer was removed from the vacuum and 5-10 mg was immediately transferred to an aluminum DSC pan. The sample was heated to 150° C. at 10° C./min, held for 1 min, then cooled to −10° C. at 10° C./min and held for 1 min. […]

## C[S+](C)[O-] [DMSO, dimethyl sulfoxide]
  ice formation (in words): No ice formed; also recorded: enough to arrest ice formation in solution
